Test results as given in PMC6375636, “Monotherapy with a low-dose lipopeptide HIV fusion inhibitor maintains long-term viral suppression in rhesus macaques” (PLoS Pathogens, 2019).
Peptide text beside a SMILES is read from it. * marks the point of attachment. Stearoyl = CCCCCCCCCCCCCCCCCC(=O)*; Palmitoyl = CCCCCCCCCCCCCCCC(=O)*

Experiments:
Format in all cases: cell-based
[1] = system: HIV-1 pseudovirus, primary Env B04; settings: Env B04, subtype B'; mean ± SD of 3 assays in triplicate
Procedure, shortened: (§1)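 Env-pseudotyped viruses were made in HEK293T by cotransfecting an Env plasmid with the luciferase-encoding pSG3Δenv backbone. Threefold inhibitor dilutions were preincubated 1 h at room temperature with 100 TCID50 of virus, then added to TZM-bl cells (10^4/well) for 48 h at 37°C before luciferase was read.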

HIV-1 CH040.c/2625 = settings: Table 2; CH040.c/2625, subtype B, R5; mean ± SD of 3 assays in triplicate
Procedure, shortened: as §1

[2] = system: divergent HIV-1 subtypes (pseudoviruses with primary Envs); settings: mean of the 36 pseudoviruses of Table 3; for VRC01 >300000 apparently counted as 300000; read-out: Mean IC50 over divergent HIV-1 subtypes
Procedure, shortened: as §1

HIV-1 THRO.c/2626 = settings: Table 2; THRO.c/2626, subtype B, R5; mean ± SD of 3 assays in triplicate
Procedure, shortened: as §1

[3] = system: HIV-1 pseudovirus, primary Env X1632-S2-B10; settings: Env X1632-S2-B10, subtype G; mean ± SD of 3 assays in triplicate
Procedure, shortened: as §1

HIV-1 R3A = settings: Table 2, subtype B, R5X4, mean ± SD of 3 assays in triplicate
Procedure, shortened: as §1

[4] = system: HIV-1 pseudovirus, primary Env SHX335.24; settings: Env SHX335.24, subtype A/E; mean ± SD of 3 assays in triplicate
Procedure, shortened: as §1

[5] = system: HIV-1 pseudovirus, primary Env CH119.10; settings: Env CH119.10, subtype B/C; mean ± SD of 3 assays in triplicate
Procedure, shortened: as §1

[6] = system: HIV-1 pseudovirus, primary Env AC10.0.29; settings: Env AC10.0.29, subtype B; mean ± SD of 3 assays in triplicate
Procedure, shortened: as §1

[7] = system: HIV-1 pseudovirus, primary Env GX11.13; settings: Env GX11.13, subtype A/E; mean ± SD of 3 assays in triplicate
Procedure, shortened: as §1

[8] = system: HIV-1 pseudovirus, primary Env JRFL; settings: subtype B, mean ± SD of 3 assays in triplicate
Procedure, shortened: as §1

[9] = system: HIV-1 pseudovirus, primary Env CNE8; settings: Env CNE8, subtype A/E; mean ± SD of 3 assays in triplicate
Procedure, shortened: as §1

[10] = system: HIV-1 pseudovirus, primary Env SC422661.8; settings: Env SC422661.8, subtype B; mean ± SD of 3 assays in triplicate
Procedure, shortened: as §1

[11] = system: HIV-1 pseudovirus, primary Env 246_F3_C10_2; settings: Env 246_F3_C10_2, subtype A/C; mean ± SD of 3 assays in triplicate
Procedure, shortened: as §1

[12] = system: HIV-1 pseudovirus, primary Env 43–22; settings: Env 43–22, subtype B'; mean ± SD of 3 assays in triplicate
Procedure, shortened: as §1

HIV-1 SG3 = settings: Table 2; SG3, subtype B, X4; mean ± SD of 3 assays in triplicate
Procedure, shortened: as §1

[13] = system: HIV-1 pseudovirus, primary Env X2278_C2_B6; settings: Env X2278_C2_B6, subtype B; mean ± SD of 3 assays in triplicate
Procedure, shortened: as §1

[14] = system: replication-competent HIV-1 isolates; settings: mean of the ten isolates of Table 2; read-out: Mean IC50 over the replication-competent isolates
Procedure, shortened: as §1

[15] = system: HIV-1 pseudovirus, primary Env R3A; settings: subtype B, mean ± SD of 3 assays in triplicate
Procedure, shortened: as §1

[16] = system: HIV-1 pseudovirus, primary Env CAP210.2.00.E8; settings: Env CAP210.2.00.E8, subtype C; mean ± SD of 3 assays in triplicate
Procedure, shortened: as §1

[17] = system: HIV-1 pseudovirus, primary Env CH110; settings: Env CH110, subtype B/C; mean ± SD of 3 assays in triplicate
Procedure, shortened: as §1

[18] = system: HIV-1 pseudovirus, primary Env 398-F1_F6_20; settings: Env 398-F1_F6_20, subtype A; mean ± SD of 3 assays in triplicate
Procedure, shortened: as §1

[19] = system: HIV-1 pseudovirus, primary Env 92RW020; settings: Env 92RW020, subtype A; mean ± SD of 3 assays in triplicate
Procedure, shortened: as §1

[20] = system: HIV-1 pseudovirus, primary Env ZM53M.PB12; settings: Env ZM53M.PB12, subtype C; mean ± SD of 3 assays in triplicate
Procedure, shortened: as §1

[21] = system: HIV-1 pseudovirus, primary Env B02; settings: Env B02, subtype B'; mean ± SD of 3 assays in triplicate
Procedure, shortened: as §1

[22] = system: HIV-1 pseudovirus, primary Env TRO.11; settings: Env TRO.11, subtype B; mean ± SD of 3 assays in triplicate
Procedure, shortened: as §1

[23] = system: HIV-1 pseudovirus, primary Env CE1176_A3; settings: Env CE1176_A3, subtype C; mean ± SD of 3 assays in triplicate
Procedure, shortened: as §1

| SMILES | IC50 [1] [pM] | IC50 (HIV-1 CH040.c/2625) [pM] | IC50 [2] [pM] | IC50 (HIV-1 THRO.c/2626) [pM] | IC50 [3] [pM] | IC50 (HIV-1 R3A) [pM] | IC50 [4] [pM] | IC50 [5] [pM] | IC50 [6] [pM] | IC50 [7] [pM] | IC50 [8] [pM] | IC50 [9] [pM] | IC50 [10] [pM] | IC50 [11] [pM] | IC50 [12] [pM] | IC50 (HIV-1 SG3) [pM] | IC50 [14] [pM] | IC50 [16] [pM] | IC50 [17] [pM] | IC50 [18] [pM] | other results |
| --- | --- | --- | --- | --- | --- | --- | --- | --- | --- | --- | --- | --- | --- | --- | --- | --- | --- | --- | --- | --- | --- |
| CCCCCCCCCCCCCCCC(=O)NCCCC[C@H](NC(=O)[C@H](CCC(=O)O)NC(=O)[C@H](CC(C)C)NC(=O)[C@H](CCCCN)NC(=O)[C@H](CCCCN)NC(=O)[C@H](CC(C)C)NC(=O)[C@H](CCC(=O)O)NC(=O)[C@H](CCC(=O)O)NC(=O)[C@H](CCC(=O)O)NC(=O)[C@H](CC(N)=O)NC(=O)[C@H](CCCCN)NC(=O)[C@H](CCCCN)NC(=O)[C@H](CCC(N)=O)NC(=O)[C@H](CCC(N)=O)NC(=O)[C@H](CCC(=O)O)NC(=O)[C@H](CCC(=O)O)NC(=O)[C@H](C)NC(=O)[C@H](CCCCN)NC(=O)[C@H](CCCCN)NC(=O)[C@H](CC(C)C)NC(=O)[C@H](CC(C)C)NC(=O)[C@H](CCC(=O)O)NC(=O)[C@H](CCC(=O)O)NC(=O)[C@@H](NC(=O)[C@H](CCCCN)NC(=O)[C@H](CCC(N)=O)NC(=O)[C@H](CCC(=O)O)NC(=O)[C@H](Cc1c[nH]c2ccccc12)NC(C)=O)[C@@H](C)CC)C(N)=O [LP-52, reference compound] (Ac-WEQKIEELLKKAEEQQKKNEEELKKLEK(Palmitoyl)-NH2) | 13.4 ± 0.94 | 66.7 ± 9.1 | 17 | 27.1 ± 4.61 | 24.5 ± 2.39 | 13.6 ± 1.99 | 18.9 ± 0.34 | 10.7 ± 1.62 | 9.71 ± 0.81 | 8.7 ± 0.88 | 46.7 ± 6.96 | 4.97 ± 1.31 | 9.39 ± 1.76 | 17.5 ± 1.91 | 7.83 ± 0.74 | 5.22 ± 1.89 | 16.9 | 39.2 ± 3.57 | 7.98 ± 1.3 | 9.48 ± 1.74 | IC50 [13]: 1.17 ± 0.22 pM; IC50 [15]: 9.22 ± 1.9 pM; IC50 [19]: 39.3 ± 1.51 pM; IC50 [20]: 26.9 ± 3.04 pM; IC50 [21]: 14.9 ± 1.55 pM; IC50 [22]: 20.6 ± 2.67 pM; IC50 [23]: 11.1 ± 1.52 pM |
| CCCCCCCCCCCCCCCCCC(=O)NCCCC[C@H](NC(=O)[C@H](CCC(=O)O)NC(=O)[C@H](CC(C)C)NC(=O)[C@H](CCCCN)NC(=O)[C@H](CCCCN)NC(=O)[C@H](CC(C)C)NC(=O)[C@H](CCC(=O)O)NC(=O)[C@H](CCC(=O)O)NC(=O)[C@H](CCC(=O)O)NC(=O)[C@H](CC(N)=O)NC(=O)[C@H](CCCCN)NC(=O)[C@H](CCCCN)NC(=O)[C@H](CCC(N)=O)NC(=O)[C@H](CCC(N)=O)NC(=O)[C@H](CCC(=O)O)NC(=O)[C@H](CCC(=O)O)NC(=O)[C@H](C)NC(=O)[C@H](CCCCN)NC(=O)[C@H](CCCCN)NC(=O)[C@H](CC(C)C)NC(=O)[C@H](CC(C)C)NC(=O)[C@H](CCC(=O)O)NC(=O)[C@H](CCC(=O)O)NC(=O)[C@@H](NC(=O)[C@H](CCCCN)NC(=O)[C@H](CCC(N)=O)NC(=O)[C@H](CCC(=O)O)NC(=O)[C@H](Cc1c[nH]c2ccccc12)NC(C)=O)[C@@H](C)CC)C(N)=O [LP-80] (Ac-WEQKIEELLKKAEEQQKKNEEELKKLEK(Stearoyl)-NH2) | 3.81 ± 1.08 | 22.7 ± 5.55 | 5.58 | 14.9 ± 1.93 | 5.56 ± 0.76 | 5.67 ± 0.85 | 2.83 ± 0.66 | 4.7 ± 0.35 | 5.01 ± 0.93 | 4.85 ± 0.99 | 10.4 ± 2.25 | 3.56 ± 0.7 | 2.55 ± 0.77 | 4.05 ± 0.47 | 3.24 ± 0.27 | 1.8 ± 0.42 | 7.09 | 10.6 ± 2.56 | 3.3 ± 0.29 | 1.49 ± 0.26 | IC50 [15]: 6.34 ± 0.65 pM; IC50 [19]: 9.74 ± 0.93 pM; IC50 [20]: 8.62 ± 0.74 pM; IC50 [21]: 8.9 ± 1.03 pM; IC50 [22]: 3.92 ± 0.26 pM; IC50 [23]: 2.94 ± 0.19 pM |
| CCCCCCCCCCCCCCCCCC(=O)NCCCC[C@H](NC(=O)[C@H](CCC(=O)O)NC(=O)[C@H](CC(C)C)NC(=O)[C@H](CCCCN)NC(=O)[C@H](CCCCN)NC(=O)[C@H](CC(C)C)NC(=O)[C@H](CCC(=O)O)NC(=O)[C@H](CCC(=O)O)NC(=O)[C@H](CCC(=O)O)NC(=O)[C@H](CC(N)=O)NC(=O)[C@H](CCCCN)NC(=O)[C@H](CCCCN)NC(=O)[C@H](CCC(N)=O)NC(=O)[C@H](CCC(N)=O)NC(=O)[C@H](CCC(=O)O)NC(=O)[C@H](CCC(=O)O)NC(=O)[C@H](C)NC(=O)[C@H](CCCCN)NC(=O)[C@H](CCCCN)NC(=O)[C@H](CC(C)C)NC(=O)[C@H](CC(C)C)NC(=O)[C@H](CCC(=O)O)NC(=O)[C@H](CCC(=O)O)NC(=O)[C@@H](NC(C)=O)[C@@H](C)CC)C(N)=O [LP-90] (Ac-IEELLKKAEEQQKKNEEELKKLEK(Stearoyl)-NH2) | 17.5 ± 7.72 | 50.2 ± 13.8 | 13.4 | 14.6 ± 2.24 | 28.4 ± 4.11 | 9.32 ± 1.21 | 3.01 ± 0.2 | 10.8 ± 2.36 | 4.42 ± 0.28 | 24.8 ± 1.59 | 12.2 ± 0.83 | 22.5 ± 2.6 | 38.5 ± 7.05 | 6.84 ± 0.47 | 3.9 ± 1.33 | 1.67 ± 0.61 | 23.7 | 29.1 ± 1.33 | 7.85 ± 1.22 | 6.32 ± 0.46 | IC50 [13]: 1.04 ± 0.22 pM; IC50 [19]: 15.1 ± 0.62 pM; IC50 [20]: 8.81 ± 0.46 pM; IC50 [21]: 15.5 ± 3.68 pM; IC50 [22]: 8.95 ± 2.3 pM; IC50 [23]: 8.77 ± 1.95 pM |
